Measurements: patent US20240148889A1, “STABILIZED TRIOXACARCIN ANTIBODY DRUG CONJUGATES AND USES THEREOF” (President and Fellows of Harvard College, priority 2020, published 2024)
Entries after “also recorded” stand apart in the source; their conditions may differ.

Assays:
[1] = tested on: MCF-7; details: mammary cancer cell line; cited from earlier work
[2] = tested on: SF-268; details: CNS cancer cell line; cited from earlier work
[3] = tested on: gram-positive; details: cited from earlier work
[4] = tested on: tumor; details: cited from earlier work
[5] = tested on: LXFL 529L; details: lung cancer cell line; cited from earlier work
[6] = tested on: H-460; details: lung cancer cell line; cited from earlier work
[7] = tested on: H460 cells; experiment: Cell proliferation assay (resazurin, CellTiter-Blue), H460; assay type: cell-based; details: for IC50: Homo sapiens, NCI-H460, 48 h, 2 days incubation, determined in triplicate; for cellular toxicity against H460 cells relative to the parent epoxide: relative to parent epoxide 1
Method: (§1) Cell Culture: Cell line NCI-H460, was purchased from American Type Culture Collection (ATCC). H460 cells were maintained in RPMI-1640 medium and HT-29 cells were maintained in McCoy's 5A medium, supplemented with 10% fetal bovine serum (Life Technologies, UK).
(§2) Cell Proliferation Assay: Cells were plated in black-walled 96-well plates (3000-4000 cells per well). Stock solutions of each compound were diluted serially and the resulting solutions were administrated to cells to achieve final concentrations of 1.1 nM to 2.5 μM in 100 μL total volume. After incubating at 37° C. (5% CO2) for 2 days (H460), 20 μL of resazurin solution (Promega CellTiter-Blue® Cell Viability Assay) was added to each well. After incubating at 37° C. for 4.0 h, the fluorescence (560 nm excitation/590 nm emission) was recorded using a microplate reader (SpectraMax i3) as a measure of viable cells. IC50 values, determined in triplicate, were calculated using a four-parameter logistic equation.

[8] = tested on: self-complementary duplex DNA oligonucleotide d(AATTACGTAATT); experiment: DNA alkylation of duplex oligonucleotide, gel electrophoresis and LC-MS; assay type: biochemical
Excerpt: In developing the compounds described herein, it was anticipated that reversible opening of the epoxide with a latent leaving group would reduce the reactivity of the warhead while attached to the antibody but would allow for reformation of the epoxide under appropriate conditions. After exploration of a variety of possible epoxide adducts using a potent analog (1, Me-ddx), it was discovered that halohydrin FSTs were not only readily synthesized under Lewis- or Brønsted-acid catalysis, but also reverted to the epoxide cleanly in pH 7.4 cell growth media at 37° C. (Scheme 7). […] The DNA-alkylating capability of the bromohydrin FST 3 in comparison to a set of FST analogs of varying potency by incubation with a self-complementary duplex DNA oligonucleotide d([…]) for 4 h at 23° C. then analysis by gel electrophoresis and LC-MS was investigated.

[9] = tested on: HT-29 (HER2−); experiment: Cell proliferation assay, HT-29; assay type: cell-based; details: Homo sapiens
Method: as §1, §2

[10] = tested on: NCI-N87 (HER2+); experiment: Cell proliferation assay, NCI-N87; assay type: cell-based; details: Homo sapiens
[11] = tested on: SK-BR-3 (HER2+); experiment: Cell proliferation assay, SK-BR-3; assay type: cell-based; details: Homo sapiens
Method: as §2

[12] = Liberation of bromohydrin by immolative spacer cyclization in buffer; assay type: physicochemical
Excerpt: In order to prevent premature reversion to the epoxide, a system in which the trioxacarcin prodrug would be linked through the tertiary alcohol of the halohydrin was envisioned. Therefore, epoxide formation could only occur once the payload had been released from the antibody upon delivery to the cellular target. Despite recent advances in the field, technology for linkage through alcohol functional groups is limited. Synthesis of benzyl ether, ester, carbonate, carbamate, diphosphate, and silyl linkers at the tertiary alcohol of 3 (bromohydrin) through previously reported methods all failed. Indeed, the electron withdrawing substituents surrounding the halohydrin alcohol (two P-acetals, a y-acetal and a bromide) coupled with the steric encumbrance they impose prevented reaction of this alcohol with nearly all electrophiles evaluated. […] It was believed that this diamine spacer would release free bromohydrin after peptidase cleavage of the linker. Simultaneous Boc deprotection of both the phenol and amine with trifluoroacetic acid (TFA) provided the TFA salt of the amine 9 after concentration, which was evaluated immediately for liberation of bromohydrin 3. […] Modifications of the diamine spacer unit to increase the rate of cyclization were unsuccessful. […]

[13] = target: Cathepsin B (Homo sapiens, UniProt P07858); experiment: Release Kinetics Assay with Cathepsin B; assay type: biochemical; details: pH 5.0, 37° C.
Method: Release Kinetics Assay: In a 1.5 mL screw-top conical plastic vial, the desired compound as a solution in DMSO (5 mM, 6 μL, 30 nmol) was mixed with a solution of N-acetylcysteine in DMSO (10 mM, 6 μL, […], 2 equiv) to quench the maleimide. The mixture was diluted with pH 5.0 sodium acetate buffer containing 8 mM N-acetylcysteine (255 μL). 1-napthalene acetic acid in DMSO (5 mM, 6 μL, 30 nmol) was added as an internal standard. A 9.2 U/mL solution of Cathepsin B in pH 5.0 buffer was added. The vial was placed in a heating block at 37° C. and protected from direct light. 25 μL aliquots of the reaction mixture were removed at various time points and analyzed by LC-MS. LC-MS peaks were integrated within the Agilent LC-MS software and the areas of each peak were normalized to 1-napthalene acetic acid at 280 nm. Percent drug-linker remaining is defined as the normalized peak area at a given time point divided by the normalized peak area at 0 hours×100%.

[14] = Compound Stability Assay (buffer, 37° C., LC-MS); assay type: physicochemical
Method: Compound Stability Assay: In a 1.5 mL screw-top conical plastic vial, the desired compound as a solution in DMSO (5 mM, 6 μL, 30 nmol) was mixed with a solution of N-acetylcysteine in DMSO (10 mM, 6 μL, […], 2 equiv) to quench the maleimide. The mixture was diluted with either pH 5.0 sodium acetate or pH 7.4 phosphate buffer containing 8 mM N-acetylcysteine (282 μL). 1-naphthalene acetic acid in DMSO (5 mM, 6 μL, 30 nmol) was added as an internal standard. In the case of testing free drug stability, no N-acetylcysteine solution was added and instead the amount of buffer added was increased an equivalent amount to compensate (288 μL total buffer). The vial was placed in a heating block at 37° C. and protected from direct light. 25 μL aliquots of the reaction mixture were removed at various time points and analyzed by LC-MS. LC-MS peaks were integrated within the Agilent LC-MS software and the areas of each peak were normalized to 1-napthalene acetic acid at 280 nm. Percent compound remaining is defined as the normalized peak area at a given time point divided by the normalized peak area at 0 hours×100%.

SMILES: COc1c2c(c(O)c3c4c(c(C)cc13)[C@@H]1O[C@@]3(C(OC)OC)O[C@@H]1[C@@](O[C@H]1C[C@@H](O)[C@@](O)(C(C)=O)[C@H](C)O1)(O4)[C@@]31CO1)C(=O)[C@@H](O)C[C@@H]2O[C@H]1C[C@@](C)(O)[C@H](OC(C)=O)[C@H](C)O1 [Trioxacarcin A]
- IC70 MCF-7 [1]: subnanmolar
- IC70 SF-268 [2]: subnanmolar
- gram-positive antibiotic activity [3]: gram-positive antibiotic activity
- anti-tumor activity in murine models [4]: anti-tumor activity
- IC70 LXFL 529L [5]: subnanmolar
- IC70 H-460 [6]: subnanmolar

SMILES: COc1c2c(c(O)c3c4c(c(C)cc13)C1OC3(C(OC)OC)OC1C(O[C@H]1C[C@@H](O)[C@@](O)(C(C)=O)[C@H](C)O1)(O4)C3(O)CO)C(=O)C(O)CC2O[C@H]1C[C@@](C)(O)[C@H](OC(C)=O)[C@H](C)O1 (stereo partly shown) [Trioxacarcin B]
- gram-positive antibiotic activity [3]: gram-positive antibiotic activity
- anti-tumor activity in murine models [4]: anti-tumor activity

SMILES: COc1c2c(c(O)c3c4c(c(C)cc13)C1OC3(C(OC)OC)OC1C(OC1CC(O)C(O)(C(C)O)C(C)O1)(O4)C31CO1)C(=O)C(O)CC2OC1COC(C)(OC(C)=O)C(C)(O)C1 (stereo not shown) [Trioxacarcin C]
- gram-positive antibiotic activity [3]: gram-positive antibiotic activity
- anti-tumor activity in murine models [4]: anti-tumor activity

SMILES: COc1c2c(c(O)c3c4c(c(C)cc13)C1OC3(C(OC)OC)OC1[C@@](OC)(O4)[C@@]3(O)CCl)C(=O)CCC2 (stereo partly shown) [compound 2]
- potency relative to the bromohydrin ([7]; H460 cells, relative to bromohydrin 3): an order of magnitude less potent
- IC50 ([7]; H460 cells): 21 nM

SMILES: COc1c2c(c(O)c3c4c(c(C)cc13)C1OC3(C(OC)OC)OC1[C@@](OC)(O4)[C@@]3(O)CBr)C(=O)CCC2 (stereo partly shown) [compound 3]
- reversion to the epoxide during DNA incubation ([8]; 4 h at 23° C.): did not revert to the epoxide
- DNA alkylation ([8]; incubation with d(AATTACGTAATT) for 4 h at 23° C.): did not alkylate DNA
- IC50 ([7]; H460 cells): 2 nM
- cellular toxicity against H460 cells relative to the parent epoxide [7]: no loss in cellular toxicity

SMILES: COc1c2c(c(O)c3c4c(c(C)cc13)C1OC3(C(OC)OC)OC1[C@@](OC)(O4)[C@@]3(O)CI)C(=O)CCC2 (stereo partly shown) [compound 4]
- IC50 ([7]; H460 cells): 4 nM
- cellular toxicity against H460 cells relative to the parent epoxide [7]: no loss in cellular toxicity
- IC50 [9]: 7 nM
- IC50 [10]: 1 nM
- IC50 [11]: 4 nM

SMILES: CNCCNC(=O)O[C@]1(CBr)C2(C(OC)OC)OC3c4c(C)cc5c(OC)c6c(c(O)c5c4O[C@]1(OC)C3O2)C(=O)CCC6 (stereo partly shown) [compound 9]
- liberation of bromohydrin 3 through diamine spacer cyclization ([12]; 37° C., pH 7.4 or 5.0 buffer): no liberation of bromohydrin was observed

SMILES: CNCCCC(=O)O[C@]1(CBr)C2(C(OC)OC)OC3c4c(C)cc5c(OC)c6c(c(O)c5c4O[C@]1(OC)C3O2)C(=O)CCC6 (stereo partly shown) [compound 13]
- liberation of the bromohydrin through ester spacer cyclization ([12]; pH 7.4 or 5.0, extended incubation at 37° C. or 50° C.): failed to liberate the bromohydrin

SMILES: COc1c2c(c(O)c3c4c(c(C)cc13)C1OC3(C(OC)OC)OC1[C@@](OC)(O4)[C@]3(CBr)OCN(CCS(C)(=O)=O)C(=O)OCc1ccc(NC(=O)[C@H](C)NC(=O)[C@@H](NC(=O)CCCCCN3C(=O)C=CC3=O)C(C)C)cc1)C(=O)CCC2 (stereo partly shown) [compound 19]
- payload release upon exposure to Cathepsin B [13]: excellent release kinetics; also recorded: rapidly liberated FST-bromohydrin payload 3
- stability of drug-linker quenched with N-acetyl cysteine ([14]; 37° C., pH 7.4 buffer): stable for days

SMILES: COCCOCCOCCOCCOCCOCCOCCC(=O)NCCCC[C@H](NC(=O)CCOCCOCCOCCOCCN1C(=O)C=CC1=O)C(=O)N[C@H](C(=O)N[C@@H](C)C(=O)Nc1ccc(COC(=O)N(CCS(C)(=O)=O)CO[C@]2(CBr)C3(C(OC)OC)OC4c5c(C)cc6c(OC)c7c(c(O)c6c5O[C@]2(OC)C4O3)C(=O)CCC7)cc1)C(C)C (stereo partly shown) [compound 27]
- payload release upon exposure to Cathepsin B [13]: rapidly releases payload
- stability of drug-linker at pH 5.0 and 7.4 ([14]; 37° C., pH 5.0 and pH 7.4): exceptionally stable
- free drug released ([14]; after 1 week at pH 7.4, 37° C.): no detectable free drug released
